Assay [1] has as its system mouse colorectal cancer cell line CT26. The assay is described as follows: Anti-tumor effect in allogenic transplantation model of mouse colorectal cancer cell line CT26. The class given is in vivo. The settings on record: female Balb/C mice, CT26 subcutaneous; 10 mg/kg per single dose, once on day-4, twice per day day-5 to day-25. How it is done: The anti-tumor effect of the compound of the present invention was evaluated in an allogenic transplantation model of CT26 that was a mouse colorectal cancer cell line. CT26 was cultured in a RPMI-1640 medium supplemented with 10 vol % of heat-inactivated fetal bovine serum (FBS), 100 units/mL of penicillin and 100 μg/mL of streptomycin in a CO2 incubator. On the day of transplantation, a culture supernatant was removed, CT26 was washed with a phosphate buffered saline (also abbreviated as “PBS”, hereinafter) and was then collected. The collected CT26 was suspended in PBS and was used as cells for transplantation. 300,000 cells for the transplantation were transplanted subcutaneously into female Balb/C mice (Charles River Laboratories Japan) on the right back. Four days after the transplantation, the mice were divided into two groups, i.e., a medium group and a compound A group, each including 10 cases. […] With respect to a tumor volume (mm^3), a shorter diameter and a longer diameter of a tumor were measured with an electronic caliper, and the tumor volume was calculated in accordance with mathematical formula 1 shown below. […]

A further assay addresses T1, human EP2 receptor (Homo sapiens, UniProt P43116).
T1 construct: expressed in transfected cells; host or cells: CHO cells
The assay is described as follows: Experiment of measuring EP2 antagonistic activity using cells expressing prostanoid receptor (cAMP). It is filed as cell-based. As to conditions: CHO cells expressing human EP2 receptor; PGE2 10 nmol/L; cAMP quantified after 1 hour at room temperature; read-out: EP2_IC50. The procedure: CHO cells on each of which a human EP2 receptor had been expressed were prepared in accordance with the method by Nishigaki et al, (FEBS Letters, vol. 364, pp. 339-341, 1995) and were then cryopreserved in CELLBANKER2 (Nippon Zenyaku Kogyo Co., Ltd.) at a concentration of 1.5×10^7 cells/mL/vial. The CHO cells thus prepared were used in the experiment. The cells were thawed, and were then suspended in an assay medium (D-PBS containing 1 mmol/L IBMX, 2 μmol/L Diclofenac) at a concentration of 5×10^5 cells/mL. PGE2 alone having a final concentration of 10 nmol/L or a solution (10 μL) containing the PGE2 and a test compound was added to the cell suspension (10 μL) to initiate the reaction. After the reaction was performed at room temperature for 1 hour, the amount of cAMP in the cells was quantified in accordance with the method described in cAMP Gs Dynamic kit (CISBIO).
The antagonistic activity (IC50 value) of a test compound was calculated as a percentage of suppression of the reaction at 10 nM, which was a concentration at which a submaximal cAMP production activity was observed when PGE2 alone was employed. In this manner, an IC50 value was determined.

T1 sequence (P43116 whole entry): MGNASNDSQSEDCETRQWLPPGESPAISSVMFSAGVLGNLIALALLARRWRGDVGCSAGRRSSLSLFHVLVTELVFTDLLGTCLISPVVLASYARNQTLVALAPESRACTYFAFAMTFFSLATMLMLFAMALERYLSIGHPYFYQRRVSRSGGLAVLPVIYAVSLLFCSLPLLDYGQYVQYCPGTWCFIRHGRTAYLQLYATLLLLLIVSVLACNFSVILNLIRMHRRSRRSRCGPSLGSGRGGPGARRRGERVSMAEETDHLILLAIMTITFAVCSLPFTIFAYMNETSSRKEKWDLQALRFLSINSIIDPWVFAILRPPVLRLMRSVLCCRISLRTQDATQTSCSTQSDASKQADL

For the compound `Cc1cc(OCCc2ccccc2)cc(C)c1C(=O)Nc1cc([C@H]2C[C@H]2C(=O)O)ccc1C(F)(F)F` [Example 18, (1R,2S)-2-[3-{[2,6-Dimethyl-4-(2-phenylethoxy)benzoyl]amino}-4-(trifluoromethyl)phenyl]cyclopropanecarboxylic acid], in assay [1], the “tumor volumes on day-25 of the transplantation compared with medium-administered group” value is given as “significantly smaller”. Besides, the IC50 at human EP2 receptor was determined as 0.9 nM.
As for `Cc1cc(CCCc2ccccc2)cc(C)c1C(=O)Nc1cc([C@H]2C[C@H]2C(=O)O)ccc1C(F)(F)F` [Example 12, (1R,2S)-2-[3-{[2,6-Dimethyl-4-(3-phenylpropyl)benzoyl]amino}-4-(trifluoromethyl)phenyl]cyclopropanecarboxylic acid], the IC50 on human EP2 receptor turned out to be 1 nM.
Take `CC[C@H](C)n1c(CCOCc2ccccc2)ccc1C(=O)Nc1cc([C@H]2C[C@H]2C(=O)O)ccc1C(F)(F)F` [Example 8, (1R,2S)-2-{3-[({5-[2-(Benzyloxy)ethyl]-1-[(2S)-2-butanyl]-1H-pyrrol-2-yl}carbonyl)amino]-4-(trifluoromethyl)phenyl}cyclopropanecarboxylic acid]: at human EP2 receptor, the IC50 is 0.4 nM.
On to `CC[C@H](C)n1c(CCCc2ccccc2)ccc1C(=O)Nc1cc([C@H]2C[C@H]2C(=O)O)ccc1C(F)(F)F` (relative stereo) [Example 2, rel-(1R,2S)-2-{3-[({1-[(2S)-2-Butanyl]-5-(3-phenylpropyl)-1H-pyrrol-2-yl}carbonyl)amino]-4-(trifluoromethyl)phenyl}cyclopropanecarboxylic acid], for which the IC50 on human EP2 receptor came to 1.6 nM.
For the compound `Cc1cc(OCCc2ccccc2)cc(C)c1C(=S)Nc1cc([C@H]2C[C@H]2C(=O)O)ccc1C(F)(F)F` [Example 32, (1R,2S)-2-[3-({[2,6-Dimethyl-4-(2-phenylethoxy)phenyl]carbonothioyl}amino)-4-(trifluoromethyl)phenyl]cyclopropanecarboxylic acid], the IC50 at human EP2 receptor was 13 nM.
`CC(C)c1nn(CCCc2ccccc2)cc1C(=O)Nc1cc([C@H]2C[C@H]2C(=O)O)ccc1C(F)(F)F` [Example 31-1, (1R,2S)-2-[3-({[3-Isopropyl-1-(3-phenylpropyl)-1H-pyrazol-4-yl]carbonyl}amino)-4-(trifluoromethyl)phenyl]cyclopropanecarboxylic acid]: the IC50 at human EP2 receptor was found to be 8.9 nM.

The record behind these values is patent US12630510B2, “EP2 antagonist” (ONO PHARMACEUTICAL CO., LTD., priority 2019, dated 2026).
